{
  "source": "patent US20140371304A1",
  "about": "“METHOD FOR SUPPRESSING TUMORIGENICITY OF STEM CELLS” (SUCAMPO AG, priority 2013, published 2014)",
  "test_system": "C57/BL6 mouse embryonic stem cells",
  "experiment": "Tumor formation in SCID-beige mice from mouse embryonic stem cells pre-treated with compound",
  "format": "in vivo",
  "conditions": "for Weight of kidney capsule tumor, mean / Volume of kidney capsule tumor, (after harvesting) mean / Volume of kidney capsule tumor, (within mice) mean / Weight of testis tumor, mean / Volume of testis tumor, (after harvesting) mean / Volume of testis tumor, (within mice) mean: MES cells treated with 1 micromolar for total 120 hrs, 1×10^6 cells/site injected to Fox Chase SCID-beige mice, 3 weeks post injection; for Weight of kidney capsule tumor, mean / Weight of testis tumor, mean: after harvesting; for Volume of kidney capsule tumor, (after harvesting) mean / Volume of testis tumor, (after harvesting) mean: measured after harvesting; for Volume of kidney capsule tumor, (within mice) mean / Volume of testis tumor, (within mice) mean: measured before harvesting; for tumorigenic potential of mouse ES cells: conclusion in words; for tumorigenic potential of mouse ES cells / volume and weight of the tumor tissues in kidneys and testes: MES cells treated with 1 micromolar, injected to SCID-beige mice; for volume and weight of the tumor tissues in kidneys and testes: result in words",
  "description": "ESGRO COMPLETE™ C57/BL6 mouse embryonic stem cells (MES, Millipore # SF-CMTI-2) were grown in 0.1% gelatin coated T75 culture flasks using ESGRO complete serum free clonal grade medium (Millipore # SF001-B) and ESGRO complete supplement (Millipore # SF012-250, containing selective GSK3β inhibitor). Cells were treated for 96 hrs with either 1 micromolar of Compound-1 ((−)-7-[(2R,4aR,5R,7aR)-2-(1,1-difluoropentyl)-2-hydroxy-6-oxooctahydrocyclopenta[b]pyran-5-yl]heptanoic acid), Compound-2 ((+)-isopropyl (Z)-7-[(1R,2R,3R,5S)-3,5-dihydroxy-2-(3-oxodecyl)cyclopentyl]hept-5-enoate) or vehicle (0.1% DMSO) until they reached 60% confluence. Drugs and media were changed daily. Cells were incubated in the presence of freshly added drug for 96 hrs, and then tested for mycoplasma over the next 24 hrs. Therefore, the cells were exposed to vehicle or Compound-1 or -2 for a total of 120 hrs. The cells were harvested and mixed with 30% matrigel. The mixture was injected to Fox Chase SCID-beige mice at 1×10^6 cells/site Tumors were collected after 3 weeks of post injection from kidney and testis. Tumor volumes were measured before and after harvesting from the mice. Tumor weight was also measured after harvesting from mice.",
  "data": [
    {"smiles": "CCCCCCCC(=O)CC[C@@H]1[C@@H](C/C=C\\CCCC(=O)OC(C)C)[C@@H](O)C[C@H]1O", "note": "[Compound-2, (+)-isopropyl (Z)-7-[(1R,2R,3R,5S)-3,5-dihydroxy-2-(3-oxodecyl)cyclopentyl]hept-5-enoate]", "values": [
      {"measurement": "Weight of kidney capsule tumor, mean", "value": 2.13, "unit": "g"},
      {"measurement": "Volume of kidney capsule tumor, (after harvesting) mean", "value": 5.44, "unit": "cm^3"},
      {"measurement": "Volume of kidney capsule tumor, (within mice) mean", "value": 9.12, "unit": "cm^3"},
      {"measurement": "Weight of testis tumor, mean", "value": 1.33, "unit": "g"},
      {"measurement": "Volume of testis tumor, (after harvesting) mean", "value": 2.68, "unit": "cm^3"},
      {"measurement": "Volume of testis tumor, (within mice) mean", "value": 5.66, "unit": "cm^3"},
      {"measurement": "tumorigenic potential of mouse ES cells", "value": "greatly reduce"},
      {"measurement": "volume and weight of the tumor tissues in kidneys and testes", "value": "reduced"}
    ]},
    {"smiles": "CCCCC(F)(F)[C@@]1(O)CC[C@H]2[C@@H](CC(=O)[C@@H]2CCCCCCC(=O)O)O1", "note": "[Compound-1, (−)-7-[(2R,4aR,5R,7aR)-2-(1,1-difluoropentyl)-2-hydroxy-6-oxooctahydrocyclopenta[b]pyran-5-yl]heptanoic acid]", "values": [
      {"measurement": "Weight of kidney capsule tumor, mean", "value": 1.40, "unit": "g"},
      {"measurement": "Volume of kidney capsule tumor, (after harvesting) mean", "value": 2.10, "unit": "cm^3"},
      {"measurement": "Volume of kidney capsule tumor, (within mice) mean", "value": 5.6, "unit": "cm^3"},
      {"measurement": "Weight of testis tumor, mean", "value": 1.87, "unit": "g"},
      {"measurement": "Volume of testis tumor, (after harvesting) mean", "value": 3.70, "unit": "cm^3"},
      {"measurement": "Volume of testis tumor, (within mice) mean", "value": 10.42, "unit": "cm^3"},
      {"measurement": "tumorigenic potential of mouse ES cells", "value": "greatly reduce"},
      {"measurement": "volume and weight of the tumor tissues in kidneys and testes", "value": "reduced"}
    ]}
  ]
}
